Data reported in PubChem BioAssay AID2060337 (Molecular Pharmacology Branch, DTP, NCI, 2025).

Test system: 832693-133-R-J1-PDC multi-cell spheroids, viability
Test: Anticancer human tumor 832693-133-R-J1-PDC patient-derived head and neck squamous carcinoma cell line growth inhibition [IpAb]
Conditions: for IC50: curve of first compound; for viability, T/C: stronger effect = lower value
From the text: Combinatorial screen of targeted agents with ipatasertib and abemaciclib in multi-cell type tumor spheroids
A high-throughput screen of multi-cell type tumor spheroids was designed to identify active combinations of targeted small molecules and ipatasertib or abemaciclib. Complex spheroids include a stromal component modeled by human endothelial cells (HUVEC) and fibroblasts modeled by human mesenchymal stem cells (MSCs). The concentration ranges selected for each drug and investigational agent were based upon clinically achievable concentrations if the clinical Cmax of the agent was known.
Compounds. The drugs and investigational agents: ipatasertib (NSC767898), abemaciclib(NSC768073), selumetinib (NSC741078), trametinib (758246), adavosertib (NSC754352), everolimus (NSC733504), sapanisertib (NSC764658), vemurafenib (NSC761431), venetoclax (NSC766270), copanlisib (NSC809693), apelisib (NSC765974), palbociblib (NSC758247), vemurafenib (NSC761431), dabrafenib (NSC764134), ravoxertinib (NSC781343), BMS-387032 (NSC767048), sotorasib (NSC818433), talazoparib (NSC767125) and afursertib (NSC778305), were obtained from the National Cancer Institute (NCI) Developmental Therapeutics Program Chemical Repository. The FDA-approved anticancer drug set is available from the NCI Developmental Therapeutics Program. […] The stock solutions were prepared in dimethyl sulfoxide (DMSO, Sigma-Aldrich, St. Louis, MO, cat. D2650) at 800-fold the tested concentration and stored at -70 degrees C prior to their use. All drugs and investigational agents were tested over a range starting from a high concentration at or near the clinical Cmax and decreasing in half-log increments. If the clinical Cmax for an agent had not been determined, the highest concentration tested was 10 microM.
NCI60 Cell Culture. NCI60 cell lines were obtained from the NCI Developmental Therapeutics Program Tumor Repository. For each lot of cells, the Repository performed Applied Biosystems AmpFLSTR Identifiler testing with PCR amplification to confirm consistency with the published Identifier STR profile for each cell line. Cells were kept in continuous culture for no more than 20 passages. The optimal seeding densities for each of the cell lines at each time point assessed were determined prior to performing the concentration response studies. Briefly, the NCI60 human tumor lines were grown as monolayers in RPMI 1640 medium supplemented with 10% FBS and 2 mmol/L L-glutamine.
An additional 9 lines were from the NCI60 cell line panel including MDA-MB-231 breast carcinoma, MDA-MB-468 breast carcinoma, MCF7 breast carcinoma, Hs578T breast carcinoma, MALME-3M melanoma, SK-MEL-2 melanoma, SK-OV-3 ovarian carcinoma, DU-145 prostate carcinoma, PC-3 prostate carcinoma, all cell lines along with major genetic alterations are listed on Table 2. Pooled donor human umbilical vein endothelial cells (HUVEC, Lonza, cat. CC-2519) and human mesenchymal stem cells (hMSC, Lonza, cat. PT-2501) were purchased from Lonza (Walkersville, MD).
PDMR cell lines were grown in complete medium (DC medium): Dulbecco's modified Eagle's medium (DMEM)/F12 supplemented with 5% fetal bovine serum (FBS), 2 mM L-glutamine, 100 U/mL penicillin and 100 µg/ml streptomycin, 0.4 µg/ml hydrocortisone, 10 ng/ml epidermal growth factor (EGF) recombinant human protein, 24 µg/mL adenine, and 0.1 mg/mL primocin. During culture from frozen stock vials, PDMR cells were cultured in the same medium containing 10 µM Y-27632 (see Table 3). The PDCs were cultured in complete DMEM/F12 media without 10 microM Y-27632 dihydrochloride for at least two passages prior to the screen. The pooled donor HUVEC and hMSC were cultured in endothelial cell growth medium 2 (PromoCell, Heidelberg, Germany, cat. C-22011) and mesenchymal stem cell growth medium 2 (PromoCell, cat. C-28009), respectively. For all experiments, HUVEC and hMSC were used at passages </=5.
[…]
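Note: spheroids exposed to the drugs for one week before the viability readout.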
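Throughout, for viability, T/C: 100% = DMSO vehicle control wells.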

SMILES: C=CCn1c(=O)c2cnc(Nc3ccc(N4CCN(C)CC4)cc3)nc2n1-c1cccc(C(C)(C)O)n1 + CC(C)NCC(C(=O)N1CCN(c2ncnc3c2C(C)CC3O)CC1)c1ccc(Cl)cc1
- IC50 (second compound 0.1 µM): 133 nM
- IC50 (second compound 0.316 µM): 76.7 nM
- IC50 (second compound 1 µM): 35.8 nM
- IC50 (second compound 3.16 µM): < 31.6 nM
- IC50 (second compound 10 µM): 42.9 nM
- viability, T/C (second compound 0.1 µM, first compound 0.0316 µM): 86%
- viability, T/C (second compound 0.1 µM, first compound 0.1 µM): 58%
- viability, T/C (second compound 0.1 µM, first compound 0.316 µM): 25.8%
- viability, T/C (second compound 0.1 µM, first compound 1 µM): 20.1%
- viability, T/C (second compound 0.1 µM, first compound 3.16 µM): 22.8%
- viability, T/C (second compound 0.1 µM, first compound 10 µM): 10.4%
- viability, T/C (second compound 0.316 µM, first compound 0.0316 µM): 66.1%
- viability, T/C (second compound 0.316 µM, first compound 0.1 µM): 45.8%
- viability, T/C (second compound 0.316 µM, first compound 0.316 µM): 23%
- viability, T/C (second compound 0.316 µM, first compound 1 µM): 14.6%
- viability, T/C (second compound 0.316 µM, first compound 3.16 µM): 14.9%
- viability, T/C (second compound 0.316 µM, first compound 10 µM): 6.24%
- viability, T/C (second compound 1 µM, first compound 0.0316 µM): 51.7%
- viability, T/C (second compound 1 µM, first compound 0.1 µM): 35.5%
- viability, T/C (second compound 1 µM, first compound 0.316 µM): 18.3%
- viability, T/C (second compound 1 µM, first compound 1 µM): 12.9%
- viability, T/C (second compound 1 µM, first compound 3.16 µM): 11.6%
- viability, T/C (second compound 1 µM, first compound 10 µM): 3.5%
- viability, T/C (second compound 3.16 µM, first compound 0.0316 µM): 48.5%
- viability, T/C (second compound 3.16 µM, first compound 0.1 µM): 36%
- viability, T/C (second compound 3.16 µM, first compound 0.316 µM): 25.3%
- viability, T/C (second compound 3.16 µM, first compound 1 µM): 16.1%
- viability, T/C (second compound 3.16 µM, first compound 3.16 µM): 11.9%
- viability, T/C (second compound 3.16 µM, first compound 10 µM): 3.31%
- viability, T/C (second compound 10 µM, first compound 0.0316 µM): 52.4%
- viability, T/C (second compound 10 µM, first compound 0.1 µM): 43.2%
- viability, T/C (second compound 10 µM, first compound 0.316 µM): 26.1%
- viability, T/C (second compound 10 µM, first compound 1 µM): 9.68%
- viability, T/C (second compound 10 µM, first compound 3.16 µM): 6.52%
- viability, T/C (second compound 10 µM, first compound 10 µM): 1.52%

SMILES: Cn1cnc2c(F)c(Nc3ccc(Br)cc3Cl)c(C(=O)NOCCO)cc21 + CC(C)NCC(C(=O)N1CCN(c2ncnc3c2C(C)CC3O)CC1)c1ccc(Cl)cc1
- IC50 (second compound 0.1 µM): 95.2 nM
- IC50 (second compound 0.316 µM): < 9.49 nM
- IC50 (second compound 1 µM): < 9.49 nM
- IC50 (second compound 3.16 µM): < 9.49 nM
- IC50 (second compound 10 µM): 160 nM
- viability, T/C (second compound 0.1 µM, first compound 0.00949 µM): 77%
- viability, T/C (second compound 0.1 µM, first compound 0.03 µM): 66.9%
- viability, T/C (second compound 0.1 µM, first compound 0.0949 µM): 45.5%
- viability, T/C (second compound 0.1 µM, first compound 0.3 µM): 38.7%
- viability, T/C (second compound 0.1 µM, first compound 0.949 µM): 27.1%
- viability, T/C (second compound 0.1 µM, first compound 3 µM): 14.7%
- viability, T/C (second compound 0.316 µM, first compound 0.00949 µM): 49.5%
- viability, T/C (second compound 0.316 µM, first compound 0.03 µM): 39.9%
- viability, T/C (second compound 0.316 µM, first compound 0.0949 µM): 33.7%
- viability, T/C (second compound 0.316 µM, first compound 0.3 µM): 30.6%
- viability, T/C (second compound 0.316 µM, first compound 0.949 µM): 17.4%
- viability, T/C (second compound 0.316 µM, first compound 3 µM): 11.2%
- viability, T/C (second compound 1 µM, first compound 0.00949 µM): 44.3%
- viability, T/C (second compound 1 µM, first compound 0.03 µM): 32%
- viability, T/C (second compound 1 µM, first compound 0.0949 µM): 30.4%
- viability, T/C (second compound 1 µM, first compound 0.3 µM): 17.7%
- viability, T/C (second compound 1 µM, first compound 0.949 µM): 12.5%
- viability, T/C (second compound 1 µM, first compound 3 µM): 8.67%
- viability, T/C (second compound 3.16 µM, first compound 0.00949 µM): 42.9%
- viability, T/C (second compound 3.16 µM, first compound 0.03 µM): 35.3%
- viability, T/C (second compound 3.16 µM, first compound 0.0949 µM): 28.6%
- viability, T/C (second compound 3.16 µM, first compound 0.3 µM): 22.4%
- viability, T/C (second compound 3.16 µM, first compound 0.949 µM): 15.8%
- viability, T/C (second compound 3.16 µM, first compound 3 µM): 11.9%
- viability, T/C (second compound 10 µM, first compound 0.00949 µM): 64%
- viability, T/C (second compound 10 µM, first compound 0.03 µM): 68.1%
- viability, T/C (second compound 10 µM, first compound 0.0949 µM): 58.7%
- viability, T/C (second compound 10 µM, first compound 0.3 µM): 38.7%
- viability, T/C (second compound 10 µM, first compound 0.949 µM): 14.6%
- viability, T/C (second compound 10 µM, first compound 3 µM): 4.33%
